Tests used:
[1] = target: T1, Protein O-GlcNAcase (Homo sapiens) (UniProt O60502); assay: Inhibition of recombinant human OGA expressed in Escherichia coli BL21 (DE3) at 20 uM using 4-Mu-GlcNAc as substrate preincubated for 10 mins followed by substrate addition and measured after 30 mins by fluorescence assay relative to control
T1 sequence (whole entry): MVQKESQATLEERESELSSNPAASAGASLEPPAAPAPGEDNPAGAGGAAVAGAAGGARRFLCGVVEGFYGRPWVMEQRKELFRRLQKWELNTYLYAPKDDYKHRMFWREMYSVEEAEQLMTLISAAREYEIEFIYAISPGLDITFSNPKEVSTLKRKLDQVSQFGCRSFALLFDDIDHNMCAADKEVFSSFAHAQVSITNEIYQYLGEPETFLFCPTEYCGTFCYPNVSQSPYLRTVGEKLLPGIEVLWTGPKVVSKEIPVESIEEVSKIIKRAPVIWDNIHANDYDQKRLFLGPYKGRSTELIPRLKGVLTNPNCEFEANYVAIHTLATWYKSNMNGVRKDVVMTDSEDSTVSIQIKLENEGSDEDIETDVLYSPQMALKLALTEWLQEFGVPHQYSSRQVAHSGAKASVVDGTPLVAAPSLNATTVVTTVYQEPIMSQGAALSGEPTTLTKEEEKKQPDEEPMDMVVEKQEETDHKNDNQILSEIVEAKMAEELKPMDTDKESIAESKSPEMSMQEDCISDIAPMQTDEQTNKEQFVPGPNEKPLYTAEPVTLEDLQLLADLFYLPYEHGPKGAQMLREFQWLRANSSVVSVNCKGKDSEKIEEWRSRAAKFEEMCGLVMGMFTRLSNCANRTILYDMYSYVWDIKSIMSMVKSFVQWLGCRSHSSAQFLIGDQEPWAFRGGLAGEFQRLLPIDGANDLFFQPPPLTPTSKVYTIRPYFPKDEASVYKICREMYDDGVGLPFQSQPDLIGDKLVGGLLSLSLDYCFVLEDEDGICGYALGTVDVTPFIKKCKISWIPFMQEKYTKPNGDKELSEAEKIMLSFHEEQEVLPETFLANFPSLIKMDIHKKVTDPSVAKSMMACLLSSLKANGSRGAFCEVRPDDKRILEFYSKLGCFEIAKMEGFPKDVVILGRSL

[2] = target: T2, Beta-hexosaminidase subunit beta (Homo sapiens) (UniProt P07686); assay: Inhibition of recombinant human His6-tagged HexB expressed in Pichia pastoris at 20 uM using 4-Mu-GlcNAc as substrate preincubated for 10 mins followed by substrate addition and measured after 30 mins by fluorescence assay relative to control
T2 sequence (whole entry): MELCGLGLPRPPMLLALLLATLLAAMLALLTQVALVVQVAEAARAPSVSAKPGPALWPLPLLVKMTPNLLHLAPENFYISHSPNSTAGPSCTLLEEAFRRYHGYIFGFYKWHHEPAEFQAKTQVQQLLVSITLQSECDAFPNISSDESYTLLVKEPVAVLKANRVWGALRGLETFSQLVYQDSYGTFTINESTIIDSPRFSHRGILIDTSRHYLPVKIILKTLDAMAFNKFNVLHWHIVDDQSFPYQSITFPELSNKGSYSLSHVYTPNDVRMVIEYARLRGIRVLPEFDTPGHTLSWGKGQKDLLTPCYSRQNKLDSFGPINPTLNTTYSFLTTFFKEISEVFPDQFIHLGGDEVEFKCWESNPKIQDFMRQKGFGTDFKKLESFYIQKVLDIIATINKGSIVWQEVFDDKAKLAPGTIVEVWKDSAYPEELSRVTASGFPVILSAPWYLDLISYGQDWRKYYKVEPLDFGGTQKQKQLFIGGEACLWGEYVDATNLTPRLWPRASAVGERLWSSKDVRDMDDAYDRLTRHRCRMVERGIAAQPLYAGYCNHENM

Protein O-GlcNAcase [3] = target: T3, Protein O-GlcNAcase (Homo sapiens, UniProt O60502); assay: Inhibition of recombinant human OGA expressed in Escherichia coli BL21 (DE3) using varying levels of 4-Mu-GlcNAc as substrate preincubated for 10 mins followed by substrate addition and measured after 30 mins by dixon plot analysis
T3 sequence (O60502 whole entry): T1 sequence (whole entry)

[4] = target: T4, Beta-hexosaminidase subunit beta (Homo sapiens, UniProt P07686); assay: Inhibition of recombinant human His6-tagged HexB expressed in Pichia pastoris using varying levels of 4-Mu-GlcNAc as substrate preincubated for 10 mins followed by substrate addition and measured after 30 mins by dixon plot analysis
T4 sequence (P07686 whole entry): T2 sequence (whole entry)

Homo sapiens = species on record: Homo sapiens; assay: Selectivity ratio of Ki for recombinant human His6-tagged HexB expressed in Pichia pastoris to Ki for recombinant human OGA expressed in Escherichia coli BL21 (DE3)
[5] = target: T2, Beta-hexosaminidase subunit beta (Homo sapiens); assay: Inhibition of recombinant human His6-tagged HexB expressed in Pichia pastoris at 100 uM using varying levels of 4-Mu-GlcNAc as substrate preincubated for 10 mins followed by substrate addition and measured after 30 mins by dixon plot analysis relative to control
[6] = Inhibition of Ostrinia furnacalis beta-N-acetylhexosaminidase using pNP-beta-GlcNAc as substrate by dixon plot analysis
[7] = target: Beta-hexosaminidase (Homo sapiens); assay: Inhibition of human beta-N-acetylhexosaminidase using pNP-beta-GlcNAc as substrate by dixon plot analysis
[8] = target: T1, Protein O-GlcNAcase (Homo sapiens); assay: Inhibition of recombinant human OGA expressed in Escherichia coli BL21 (DE3) at 20 uM using 4-Mu-GlcNAc as substrate measured after 30 mins by fluorescence assay relative to control
[9] = target: T2, Beta-hexosaminidase subunit beta (Homo sapiens); assay: Inhibition of recombinant human His6-tagged HexB expressed in Pichia pastoris at 20 uM using 4-Mu-GlcNAc as substrate measured after 30 mins by fluorescence assay relative to control
[10] = target: T4, Beta-hexosaminidase subunit beta; assay: Inhibition of recombinant human His6-tagged HexB expressed in Pichia pastoris using 4-Mu-GlcNAc as substrate preincubated for 10 mins followed by substrate addition and measured after 30 mins by fluorescence assay
Protein O-GlcNAcase [11] = target: T3, Protein O-GlcNAcase; assay: Inhibition of recombinant human OGA expressed in Escherichia coli BL21 (DE3) using 4-Mu-GlcNAc as substrate preincubated for 10 mins followed by substrate addition and measured after 30 mins by fluorescence assay

| inhibition [1] [%] | inhibition [2] [%] | Ki (Protein O-GlcNAcase [3]) [µM] | Ki [4] [µM] | Ratio Ki (Homo sapiens) | Compound | also measured |
| --- | --- | --- | --- | --- | --- | --- |
| 56.4 | 22.5 | 6.7 | 56.2 | 8.4 | COc1ccc2c3c(cccc13)C(=O)N(CCNCCS[C@@H]1O[C@H](CO)[C@@H](O)[C@H](O)[C@H]1NC(C)=O)C2=O |  |
| 83.3 | 70.8 | 0.8 | 1.6 | 2 | CC(=O)N[C@@H]1[C@@H](O)[C@H](O)[C@@H](CO)O[C@H]1SCCNCCCN1C(=O)c2cccc3c(Cl)ccc(c23)C1=O |  |
| 73.2 | 73.3 | 1.2 | 2.6 | 2.2 | CC(=O)N[C@@H]1[C@@H](O)[C@H](O)[C@@H](CO)O[C@H]1SCCNCCN1C(=O)c2cccc3c(Br)ccc(c23)C1=O |  |
| 84.7 | 70.5 | 0.9 | 1.8 | 2 | CC(=O)N[C@@H]1[C@@H](O)[C@H](O)[C@@H](CO)O[C@H]1SCCNCCCN1C(=O)c2cccc3c(Br)ccc(c23)C1=O |  |
| 34.3 | 39 |  |  |  | COc1ccc2c3c(cccc13)C(=O)N(CCNCCCS[C@@H]1O[C@H](CO)[C@@H](O)[C@H](O)[C@H]1NC(C)=O)C2=O |  |
| 32.6 | 0 |  |  |  | CC(=O)N[C@@H]1[C@@H](O)[C@H](O)[C@@H](CO)O[C@H]1SCCNCCN1C(=O)c2cccc3c(N(C)C)ccc(c23)C1=O | IC50 [10]: > 100 µM; IC50 (Protein O-GlcNAcase [11]): 25 µM |
| 25.1 | 13.8 |  |  |  | CC(=O)N[C@@H]1[C@@H](O)[C@H](O)[C@@H](CO)O[C@H]1SCCNCCN1C(=O)c2cccc3c([N+](=O)[O-])ccc(c23)C1=O |  |
| 75.7 | 60.6 | 3.5 | 5.1 | 1.5 | CC(=O)N[C@@H]1[C@@H](O)[C@H](O)[C@@H](CO)O[C@H]1SCCCNCCN1C(=O)c2cccc3c(Br)ccc(c23)C1=O |  |
| 83.6 | 75.2 | 0.7 | 1.6 | 2.3 | CC(=O)N[C@@H]1[C@@H](O)[C@H](O)[C@@H](CO)O[C@H]1SCCCNCCN1C(=O)c2cccc3c(Cl)ccc(c23)C1=O |  |
| 68.9 | 74.3 | 2.1 | 1.8 | 0.9 | CC(=O)N[C@@H]1[C@@H](O)[C@H](O)[C@@H](CO)O[C@H]1SCCCNCCCN1C(=O)c2cccc3c(Cl)ccc(c23)C1=O |  |
| 26.6 | 0 |  |  |  | CC(=O)N[C@@H]1[C@@H](O)[C@H](O)[C@@H](CO)O[C@H]1SCCCNCCN1C(=O)c2cccc3c(N(C)C)ccc(c23)C1=O |  |
| 66.1 | 73.8 | 2 | 1.2 | 0.6 | CC(=O)N[C@@H]1[C@@H](O)[C@H](O)[C@@H](CO)O[C@H]1SCCNCCN1C(=O)c2cccc3c(Cl)ccc(c23)C1=O |  |
| 40.9 | 0 |  |  |  | CC(=O)N[C@@H]1[C@@H](O)[C@H](O)[C@@H](CO)O[C@H]1SCCNCCCN1C(=O)c2cccc3c(N(C)C)ccc(c23)C1=O |  |
| 73.1 | 47.9 | 1.6 | 22.1 | 13.8 | COc1ccc2c3c(cccc13)C(=O)N(CCCNCCS[C@@H]1O[C@H](CO)[C@@H](O)[C@H](O)[C@H]1NC(C)=O)C2=O |  |
| 25.6 | 0 |  |  |  | CC(=O)N[C@@H]1[C@@H](O)[C@H](O)[C@@H](CO)O[C@H]1SCCCNCCN1C(=O)c2cccc3c([N+](=O)[O-])ccc(c23)C1=O |  |

Further lines, the molecule ahead of its results:

| Compound | inhibition [1] [%] | inhibition [2] [%] | Ki (Protein O-GlcNAcase [3]) [µM] | Ki [4] [µM] | Ratio Ki (Homo sapiens) | also measured |
| --- | --- | --- | --- | --- | --- | --- |
| CC(=O)N[C@@H]1[C@@H](O)[C@H](O)[C@@H](CO)O[C@H]1SCCCNCCCN1C(=O)c2cccc3c([N+](=O)[O-])ccc(c23)C1=O | 20 | 0 |  |  |  |  |
| CC(=O)N[C@@H]1[C@@H](O)[C@H](O)[C@@H](CO)O[C@H]1SCCCNCCCN1C(=O)c2cccc3c(N4CCCCC4)ccc(c23)C1=O | 49.1 | 0 |  |  |  |  |
| COc1ccc2c3c(cccc13)C(=O)N(CCCNCCCS[C@@H]1O[C@H](CO)[C@@H](O)[C@H](O)[C@H]1NC(C)=O)C2=O | 68 | 45.2 | 15.9 | 24.7 | 1.6 |  |
| CC(=O)N[C@@H]1[C@@H](O)[C@H](O)[C@@H](CO)O[C@H]1SCCCNCCCN1C(=O)c2cccc3c(Br)ccc(c23)C1=O | 59.2 | 65 | 2.2 | 4.4 | 2 |  |
| CC(=O)N[C@@H]1[C@@H](O)[C@H](O)[C@@H](CO)O[C@H]1SCCNCCCN1C(=O)c2cccc3c(N4CCCCC4)ccc(c23)C1=O | 87.6 | 0 | 0.6 |  | > 167 | inhibition [5]: < 50% |
| Cc1nnc(CNCCN2C(=O)c3cccc4cccc(c34)C2=O)s1 |  |  |  |  |  | Ki [6]: 4.3 µM; Ki [7]: 2.2 µM |
| CC(=O)N[C@@H]1[C@@H](O)[C@H](O)[C@@H](CO)O[C@H]1SCCNCCCN1C(=O)c2cccc3c([N+](=O)[O-])ccc(c23)C1=O | 55 | 8 | 8.3 |  | > 12 | inhibition [5]: < 50% |
| CC(=O)N[C@@H]1[C@@H](O)[C@H](O)[C@@H](CO)O[C@H]1SCCNCCCN1C(=O)c2cccc3cccc(c23)C1=O |  |  |  |  | 8 | inhibition [8]: 82.4%; inhibition [9]: 38.7% |
| CC(=O)N[C@@H]1[C@@H](O)[C@H](O)[C@@H](CO)O[C@H]1SCCNCCN1C(=O)c2cccc3c(N4CCCCC4)ccc(c23)C1=O | 36.7 | 0 |  |  |  |  |
| CC(=O)N[C@@H]1[C@@H](O)[C@H](O)[C@@H](CO)O[C@H]1SCCCNCCN1C(=O)c2cccc3c(N4CCCCC4)ccc(c23)C1=O | 67.5 | 0 | 3.2 |  | > 31.2 | inhibition [5]: < 50% |
| Cc1nnc(CNCCN2C(=O)c3cccc4c(N(C)C)ccc(c34)C2=O)s1 |  |  |  |  |  | Ki [6]: 0.3 µM; Ki [7]: > 100 µM |
| CC(=O)N[C@@H]1[C@@H](O)[C@H](O)[C@@H](CO)O[C@H]1SCCCNCCCN1C(=O)c2cccc3c(N(C)C)ccc(c23)C1=O | 28.2 | 0 |  |  |  |  |
